# What was measured:
# CaSki = test: MTT cell viability (dose-dependent cytotoxicity) assay, 72 h; format: cell-based, human; conditions: for reduction in cell viability: CaSki
# Method: (§1) Control-treated wells contained cells incubated in media with equal volumes of DMSO (0.2%). […] The media was aspirated and cells were incubated in 100 µL complete medium with 0.5 mg/mL MTT solution for 4 h in the dark to allow metabolism of MTT by cellular mitochondrial dehydrogenases. The excess MTT was aspirated and the formazan crystals formed were dissolved by the addition of 100 µL of DMSO. The absorbance of dark blue formazan was read at 570/650 nm wavelengths using a microplate reader (Bio-Rad Benchmark Plus Microplate Spectrophotometer, Hercules, CA, USA). Triplicate absorbance values were averaged and the effect of the compounds on growth inhibition was assessed as percentage cell viability as follows: […] The results were analysed using GraphPad Prism version 6.00 for Windows (GraphPad Software, La Jolla, CA, USA). […] Overall EC50 was determined by taking the average EC50 from three independent experiments.
# HeLa [1] = test: as above; format: cell-based, human
# Method: as §1
# MRC9 = test: MTT cell viability (cytotoxicity) assay on non-cancerous lung fibroblasts, 72 h; format: cell-based; conditions: Homo sapiens, MRC9; MTT, 72 h, non-cancerous lung fibroblasts; read-out: EC50 (Mean ± S.E.M.) MRC9
# Method: HeLa, CaSki and MRC9 cells were plated in triplicate wells in 96-well flat-bottomed tissue culture plates (Nunc, Roskilde, Denmark) with 10^5 cells per mL in 100 μL culture media with working concentrations of diarylpentanoid treatment ranging from 1.6 to 100 μM. Control-treated wells contained cells incubated in media with equal volumes of DMSO (0.2%). Cells were treated for 72 h for dose-dependent cytotoxicity assays and at 24, 48 and 72 h for anti-proliferative (time-dependent) assays. In order to assess cell viability and anti-proliferative activity after diarylpentanoid treatment, the colorimetric 3-(4,5-dimethylthiazol-2-yl)-2,5-diphenyltetrazolium bromide (MTT) assay was performed as previously described with modifications. The media was aspirated and cells were incubated in 100 µL complete medium with 0.5 mg/mL MTT solution for 4 h in the dark to allow metabolism of MTT by cellular mitochondrial dehydrogenases. The excess MTT was aspirated and the formazan crystals formed were dissolved by the addition of 100 µL of DMSO. The absorbance of dark blue formazan was read at 570/650 nm wavelengths using a microplate reader (Bio-Rad Benchmark Plus Microplate Spectrophotometer, Hercules, CA, USA). Triplicate absorbance values were averaged and the effect of the compounds on growth inhibition was assessed as percentage cell viability as follows: (1) Percentage cell viability =Absorbance of Test − Absorbance of Blank (media only)/Absorbance of Control − Absorbance of Blank (media only) × 100 where, absorbance = optical density of sample, O.D.; control = untreated sample; test = treated sample.
# The results were analysed using GraphPad Prism version 6.00 for Windows (GraphPad Software, La Jolla, CA, USA). Using percentage cell viability Equation (1), log dose–response curves were constructed, from which the half maximal effective concentration, EC50 for each replicate was determined. Overall EC50 was determined by taking the average EC50 from three independent experiments. […] (3) Selectivity Index (SX) =EC50 (MRC9)/EC50 (Cancer cell line) × 100
# [2] = test system: caspase-3 activity in CaSki cells; test: Caspase-3 colorimetric assay (relative caspase-3 activity); format: cell-based, human
# Method: (§2) HeLa, 9 μM] at various time points. Each experiment included a set of untreated control cells (Media with DMSO alone). Caspase-3 activity was assessed using the Caspase-3 Colorimetric Assay Kit (Sigma Aldrich), following the manufacturer’s instructions. […] Following treatment, the cells were washed in PBS and suspended in a lysis buffer (50 mM HEPES pH 7.4, 5 mM CHAPS, 5 mM DTT) for 25 min at a concentration of 10^7 cells per 100 μL of buffer. Lysed cells were centrifuged at 16,000× g, 4 °C for 30 min. Lysate protein concentration was determined using the Cayman Chemical Protein Determination (Cayman Chemical Company, Ann Arbor, MI, USA) kit which is a colorimetric method for total protein quantification based on the Bradford method. In short, 100 μL of protein samples was diluted in 96-well plates and 100 μL of the assay reagent was added to the samples, incubated for 5 min and the absorbance measured at 595 nm. Protein concentrations were calculated from a regression line fit to a series of standard protein dilutions assays on the same plate as the unknown samples. […] The effect of Ac-DEVD-CHO, a caspase-3 inhibitor, on caspase-3 activity was studied simultaneously. As per the manufacturer’s instructions, 10 μL of the inhibitor Ac-DEVD-CHO (200 μM) was added to a well containing the assay buffer, followed immediately by the cell lysate and 10 μL of the substrate Ac-DEVD-pNA (2 mM). Caspase-3 activity was assessed by measuring the absorbance released by the pNA molecule at 405 nm using a Bio-Rad Benchmark Plus Microplate Spectrophotometer. Caspase-3 activity was expressed by measuring the ratio of the mean caspase-3 activity of treated cells relative to untreated cells.
# [3] = test system: caspase-3 activity in HeLa cells; test: as above; format: cell-based, human; conditions: all time points and doses (3, 6, 9 μM)
# Method: as §2
# HeLa [4] = test: DNA fragmentation, Cell Death Detection ELISA (cytoplasmic nucleosomal enrichment); format: cell-based, human
# Method: Each experiment included a set of untreated control cells (Media with DMSO alone). The enrichment of the cytoplasm of treated cells by mono- and oligonucleosomes are used to study whether enhanced DNA fragmentation is induced by diarylpentanoid treatment. This determination was made following the manufacturer’s instructions of the Cell Death Detection ELISA^PLUS kit (Roche Diagnostics, Mannheim, Germany). […] Following treatment, the cells were incubated in lysis buffer and centrifuged, after which the supernatant was transferred to streptavidin coated plates and shaken with the provided immunoreagent (mixture of anti-DNA-POD and anti-histone biotin) for 2 h. […] Enrichment factor, defined as the release of mono- and oligonucleosomes into the cytoplasm, was calculated using the formula below: (4) Enrichment factor =Absorbance of Test − Absorbance of Blank (substrate only)/Absorbance of Control − Absorbance of Blank (substrate only)
# [5] = test system: C4-2 prostate cancer cells; parameters: method as in PMID 21796654; conditions: cited from earlier work
smiles,measurement,setting,value
"O=C(C=Cc1ccccc1O)C=Cc1ccccc1O [MS17, 1,5-bis(2-hydroxyphenyl)-1,4-pentadiene-3-one]",reduction in cell viability,"CaSki; 1.6 μM, 72 h",30%
same,reduction in cell viability,"CaSki; 3.1 to 100 μM, 72 h",90%
same,Selective Index CaSki,CaSki; EC50 (MRC9)/EC50 (CaSki) × 100,447
same,EC50,"CaSki; Homo sapiens, Ca-Ski, MTT, 72 h, read-out: EC50 (Mean ± S.E.M.) CaSki",1.03 ± 0.5 µM
same,Selective Index HeLa,HeLa [1]; EC50 (MRC9)/EC50 (HeLa) × 100,177
same,cell viability,"HeLa [1]; HeLa, 12.5 to 100 μM, 72 h",less than 10%
same,EC50,"HeLa [1]; Homo sapiens, HeLa, MTT, 72 h, read-out: EC50 (Mean ± S.E.M.) HeLa",2.6 ± 0.9 µM
same,viability at 3.1 µM,"HeLa [1]; Homo sapiens, HeLa, 3.1 μM, 72 h",36%
same,viability at 6.3 µM,"HeLa [1]; Homo sapiens, HeLa, 6.3 μM, 72 h",14%
same,EC50,MRC9,4.6 ± 1.2 µM
same,relative caspase-3 activity,[2]; 2 μM,low caspase-3 activity
same,relative caspase-3 activity,"[2]; 4 μM, 48 h",increased activity
same,relative caspase-3 activity,"[2]; 6 μM, 24 h, treated over untreated",threefold increase
same,relative caspase-3 activity,[3],no significant differences
same,increase in nucleosome enrichment,"HeLa [4]; 6 μM, 24 h, vs untreated",2.2 fold
same,increase in enrichment factor,"HeLa [4]; 6 μM, 48 h, vs untreated",approximately two-fold
same,enrichment factor,"HeLa [4]; 6 and 9 μM, 72 h",significant reduction of enrichment factor
same,concentration causing significant cell death,[5],more than 2.5 μM

# — publication PMC6331910, “The Curcumin Analogue 1,5-Bis(2-hydroxyphenyl)-1,4-pentadiene-3-one Induces Apoptosis and Downregulates E6 and E7 Oncogene Expression in HPV16 and HPV18-Infected Cervical Cancer Cells” (Molecules, 2015)
